Test results from patent US20170266123A1, “COATED PARTICLES FOR DRUG DELIVERY” (Dana-Farber Cancer Institute, Inc., priority 2014, published 2017).

Key:
[1] = PTX content in murine blood and peritoneal cavity after IP dosing; assay type: in vivo; settings: female, FVB, mouse, mice, IP 5 mg/kg, 3 hours post dosing
Description: Six week-old female FVB mice were obtained from Charles River Laboratory (Boston, USA). Mice were housed in a pathogen-free facility in accordance with the standards of the Dana-Farber Cancer Institute. All animal experiments were approved by the Institute's IACUC. Mice were kept in groups of 4-5 per cage in a 12 hour light/12 hour dark cycle and housed at 25° C. with 50% relative humidity. […] Mice were anaesthetized, and blood samples were collected via retro-orbital bleeding 3 hours post dosing. Blood samples were kept on ice until centrifugation. Samples were centrifuged at 1,400 RCF for 10 min, and plasma was collected. After blood sample collection, mice were sacrificed, and their peritoneal cavities were washed thrice post-mortem with PBS. Plasma and peritoneal washes were flash frozen with liquid nitrogen and lyophilized. The lyophilized powders were rehydrated in 300 μL water and extracted with tert-butyl methyl ether (tBME). The organic solvent was dried under nitrogen.

[2] = test system: Calu6 (human lung cancer); experiment: PTX cytotoxicity, MTT assay, Calu6; assay type: cell-based; settings: Calu-6, Calu6, 72 hours
Description: (§1) Cells were seeded at a density of 10,000 cells per well in a 96-well and incubated overnight in 200 μL of complete medium. The culture medium was then replaced with 198 μL of fresh medium, two free drug/DMSO solution or NP suspensions in the final concentration ranging from 0.001 to 10,000 nM. After 72 hours of incubation, the medium was replaced with 100 μL of fresh medium containing 13% MTT and incubated for 3.5 hours. Finally, 100 μL of the solubilization/stop solution comprising 20% SDS, 0.02% v/v acetic acid, and 50% v/v DMSO was added to each well, and the absorbance was read at 560 nm by the microplate reader. Cell viability was calculated by dividing the absorbance of treated cells by that of untreated cells after subtracting the absorbance of cell-free medium from each. Here, the untreated cells were those provided with no drug but handled equally otherwise, and the cell-free medium was the medium mixed with MTT solution and stop-solution without cells.
(§2) Cell viability was determined as described in Example 5.

[3] = test system: BR5FVB1-Akt (murine ovarian cancer); experiment: PTX cytotoxicity, MTT assay, BR5FVB1-Akt; assay type: cell-based; settings: Mus musculus, 72 hours
Description: as §1, §2

BR5FVB1-Akt cells = experiment: Survival study in immunocompetent murine model of ovarian cancer; assay type: in vivo, mouse; settings: FVB mice, IP 5 mg/kg twice weekly, five doses
Description: The BR5FVB1-Akt mouse ovarian cancer cell line was cultured in DMEM supplemented with 10% FBS and 1% penicillin/streptomycin at 37° C. with 5% CO2. Subconfluent BR5FVB1-Akt cells were trypsinized, washed, and suspended in opti-MEM as a single-cell suspension. Six week-old female FVB mice were injected IP with a total volume of 400 μl opti-MEM containing 3.75×10^6 BR5FVB1-Akt cells.
Mice were sacrificed by CO2 asphyxiation upon ascites development. Their peritoneal cavities were opened postmortem to observe tumor location and extent of metastasis in the peritoneal region. All FVB mice inoculated with BR5FVB1-Akt cells developed tumors. Tumors developed gradually and manifested by formation of ascites in the peritoneal cavity. Tumors were detectable post-mortem as nodules of various sizes and number on the peritoneal wall or adhered to the intestine.
Statistical analysis was performed with GraphPad Prism 5 (La Jolla, Calif., USA). Statistical significance among groups was determined by one-way ANOVA, and pairs were compared by Tukey's multi-comparison test. Survival groups were compared using a Mantel-Cox test.

[4] = test system: SKOV-3 (human ovarian cancer); experiment: PTX cytotoxicity, MTT assay, SKOV3; assay type: cell-based; settings: SK-OV-3, SKOV3, 72 hours
Description: as §1, §2

4T1 cells = experiment: Viability of 4T1 cells exposed to Dox or Dox-laden nanoparticles through matrigel; assay type: cell-based; settings: 500 ng/mL Dox; 3, 6 and 24 hours
Description: Nanoparticles with doxorubicin in the core were formed as described in Example 1, except doxorubicin was added to the organic solvent. The particles were coated as described in Example 10. To test the cell viability for cells exposed to doxorubicin particles, 500 ng/mL of Dox or Dox-laden nanoparticles were added to matrigel on top chamber of a 24 well plates seeded with 4T1 cells. Plates were incubated at 37° C., while gently shaken. The viability was measured at 3 hours, 6 hours, and 24 hours. Cell viability was determined as described in Example 5. For the mammosphere assay, 4T1 cells were seeded at 1000 cells/150 uL/well in 96 well ultra-low adherence plate. The remaining 4T1 cells after treatment were harvested and filtered and the number of mammospheres counted using microscopy.

concentration at 3 h ([1]; peritoneal lavage (PBS wash of peritoneal cavity)) | concentration at 3 h ([1]; plasma) | SMILES | IC50 [2] | IC50 [3] | tumor onset (BR5FVB1-Akt cells) | IC50 [4] | viability of cells (4T1 cells)
4500 ± 1300 ng/mL | 9500 ± 1900 ng/mL | CC(=O)O[C@H]1C(=O)[C@@]2(C)[C@H]([C@H](OC(=O)c3ccccc3)[C@]3(O)C[C@H](OC(=O)[C@H](O)[C@@H](NC(=O)c4ccccc4)c4ccccc4)C(C)=C1C3(C)C)[C@]1(OC(C)=O)CO[C@@H]1C[C@@H]2O [PTX, paclitaxel] | ~10 nM | ~100 nM | developed tumors at similar time points | ~10 nM | 
 |  | COc1cccc2c1C(=O)c1c(O)c3c(c(O)c1C2=O)C[C@@](O)(C(=O)CO)C[C@@H]3O[C@H]1C[C@H](N)[C@H](O)[C@H](C)O1 [Dox in solution, doxorubicin] |  |  |  |  | reduced viability of cells
